Assay results reported in US8501992B2, “Hydroxyphenyl sulfonamides as antiapoptotic bcl inhibitors” (Bristol-Myers Squibb Company, priority 2008, dated 2013).

How the values were obtained:
Type in all cases: binding
Bcl-b = target: T1, Bcl-b (Homo sapiens, UniProt Q9HD36); assay: Bclb/Bim fluorescence polarization assay (FPA); conditions: BIM BH3 peptide 5 nM, Bcl-b 40 nM, Ki calculated from FPA data
T1 construct: without their C-terminal transmembrane domain; GST; made in house
T1 sequence (Q9HD36 1-182 limits assumed): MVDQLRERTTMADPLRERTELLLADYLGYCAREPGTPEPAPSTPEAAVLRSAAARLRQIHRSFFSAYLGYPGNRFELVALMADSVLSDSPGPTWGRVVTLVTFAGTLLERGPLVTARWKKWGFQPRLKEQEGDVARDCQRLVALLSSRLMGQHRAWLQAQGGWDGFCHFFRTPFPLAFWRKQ
From the text: (§1) Compounds were profiled for their ability to disrupt in vitro binding interactions in fluorescence polarization assays (FPAs) using synthetic fluorochrome-labeled Bcl homology 3 (BH3) peptides derived from BIM [(FAM)-Ahx-[…]-NH2 (SEQ ID NO: 1) (GenBank Accession No. O43521)] or BAK [Ac-GQVGRQLAIIGE-LYS(FAM)-INR-NH2 (SEQ ID NO:2) (GenBank Accession No. Q16611) amino acid sequences and four bacterial recombinant proteins [Bcl-b (GenBank Accession No. Q9HD36), Bcl-2 (GenBank Accession No. P10415), Bcl-Xl (GenBank Accession No. Q07817), Mcl-1 (GenBank Accession No. Q07820)] without their C-terminal transmembrane domain. Proteins were purified from bacterial lysates using their glutathione S-transferase (GST)-tag (Bcl-b, Bcl-2, Mcl-1) or His6-tag (Bcl-Xl) and following one-step affinity chromatography procedures. Dissociation constants (Kd) for peptide binding protein were determined by fluorescence polarization in FPAs measuring BIM BH3 peptide binding Bcl-b, Mcl-1 or Bcl-2 protein or BAK BH3 peptide binding Bcl-Xl protein. The Kd values were generated by fitting the experimental data using a sigmoidal dose-response nonlinear regression model.
(§2) Compound inhibitory concentration values, IC50 (50% reduction in fluorescence polarization), were determined using fluorochrome-labeled BH3 peptides and recombinant Bcl proteins in fluorescence polarization assays (FPAs). Compounds diluted in DMSO (0.5 ul) were transferred (in duplicate) to individual wells of a 384-well plate. The fluorochrome-labeled peptide was added followed by recombinant protein addition. Each binding FPA reaction (50 ul) contained BIM BH3 peptide (5 nM) or BAK BH3 peptide (1.5 nM) and Bcl-b (40 nM), Mcl-1 (28 nM), Bcl-2 (11 nM) or Bcl-Xl. (5 nM) protein suspended in assay buffer [20 mM sodium phosphate, pH 7.4, 1 mM EDTA, 50 mM NaCl., 0.05% Pluronic F68]. Reaction mixtures were incubated at ambient temperature for 60 minutes prior to measuring polarization (mP) using an Analyst (LJL, Molecular Devices, Sunnyvale, Calif.) programmed to detect an emission wavelength of 530 nm after excitation (excitation wavelength=485 nm).
(§3) Competitive compound inhibition constants (Ki) were calculated using FPA experimental data and a mathematical equation, Ki=[I]50/([L]50/Kd+[P]0/Kd+1), where [I]50 denotes free inhibitor concentration at 50% inhibition, [L]50 is free labeled ligand concentration at 50% inhibition, [P]0 is free protein concentration at 0% inhibition, and Kd is the dissociation constant of the protein-ligand complex.

Mcl-1 = target: T2, Mcl-1 (Homo sapiens, UniProt Q07820); assay: Mcl-1/Bim fluorescence polarization assay (FPA); conditions: BIM BH3 peptide 5 nM, Mcl-1 28 nM, Ki calculated from FPA data
T2 construct: without their C-terminal transmembrane domain; GST; made in house
From the text: as §1, §2, §3

Bcl-2 = target: T3, Bcl-2 (Homo sapiens, UniProt P10415); assay: Bcl2/Bim fluorescence polarization assay (FPA); conditions: BIM BH3 peptide 5 nM, Bcl-2 11 nM, Ki calculated from FPA data
T3 construct: without their C-terminal transmembrane domain; GST; made in house
From the text: as §1, §2, §3

T3 sequence (P10415 1-211 limits assumed): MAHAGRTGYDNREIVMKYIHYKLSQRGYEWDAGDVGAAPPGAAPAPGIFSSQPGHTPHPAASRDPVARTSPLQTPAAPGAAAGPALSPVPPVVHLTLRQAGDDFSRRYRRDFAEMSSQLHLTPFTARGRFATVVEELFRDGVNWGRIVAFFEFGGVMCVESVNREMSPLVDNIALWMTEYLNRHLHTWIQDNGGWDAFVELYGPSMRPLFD
T2 sequence (Q07820 1-327 limits assumed): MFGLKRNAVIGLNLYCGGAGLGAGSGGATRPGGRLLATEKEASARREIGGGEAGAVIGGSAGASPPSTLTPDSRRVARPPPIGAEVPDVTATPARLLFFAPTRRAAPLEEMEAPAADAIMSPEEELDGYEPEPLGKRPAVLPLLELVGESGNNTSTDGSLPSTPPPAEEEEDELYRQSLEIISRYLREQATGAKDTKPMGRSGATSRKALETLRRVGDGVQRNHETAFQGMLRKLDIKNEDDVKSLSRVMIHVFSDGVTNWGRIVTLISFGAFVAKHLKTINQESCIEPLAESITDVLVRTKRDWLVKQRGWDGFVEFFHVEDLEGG

## O=S(=O)(NCc1ccc(CN(Cc2ccc(F)cc2)S(=O)(=O)c2cc(Cl)cc(Cl)c2O)cc1)c1cc(Cl)cc(Cl)c1 [Example 98, 3,5-Dichloro-N-(4-((3,5-dichlorophenylsulfonamido)methyl)benzyl)-N-(4-fluorobenzyl)-2-hydroxybenzenesulfonamide]
Bcl-b
  Ki: 160 nM
Mcl-1
  Ki: 280 nM
Bcl-2
  Ki: 230 nM

## O=S(=O)(c1cc(Cl)cc(Cl)c1)N(CCO)Cc1ccc(CN(Cc2ccc(F)cc2)S(=O)(=O)c2cc(Cl)cc(Cl)c2O)cc1 [Example 176]
Bcl-b
  Ki: 180 nM
Mcl-1
  Ki: 480 nM
Bcl-2
  Ki: 440 nM

## O=C(O)c1ccc(S(=O)(=O)NCc2cccc(CN(Cc3ccc(-c4ccccc4)cc3)S(=O)(=O)c3cc(Cl)cc(Cl)c3O)c2)cc1 [Example 49, 4-(N-(3-((N-(biphenyl-4-ylmethyl)-3,5-dichloro-2-hydroxyphenyl-sulfonamido)methyl)benzyl)sulfamoyl)benzoic acid]
Bcl-b
  Ki: 138 nM
Mcl-1
  Ki: 204 nM
Bcl-2
  Ki: 347 nM

## Cc1ccc(S(=O)(=O)N(Cc2ccc(F)cc2)Cc2cc(CNS(=O)(=O)c3cc(Cl)cc(Cl)c3O)cc(-c3ccc(F)cc3)c2)cc1 [Example 13, 3,5-Dichloro-N-((4′-fluoro-5-((N-(4-fluorobenzyl)-4-methylphenylsulfonamido)methyl)biphenyl-3-yl)methyl)-2-hydroxybenzenesulfonamide]
Bcl-b
  Ki: 90 nM
Mcl-1
  Ki: 30 nM
Bcl-2
  Ki: 20 nM

## CN(C)c1ccc(CNC(=O)c2ccc(CN(Cc3ccc(F)cc3)S(=O)(=O)c3cc(Cl)cc(Cl)c3O)cc2)cc1 [Example 150, 4-((3,5-Dichloro-N-(4-fluorobenzyl)-2-hydroxyphenylsulfonamido)methyl)-N-(4-(dimethylamino)benzyl)benzamide]
Bcl-b
  Ki: 200 nM
Mcl-1
  Ki: 460 nM
Bcl-2
  Ki: 440 nM

## Cc1cccc(CN(Cc2ccc(F)cc2)S(=O)(=O)c2cc(Cl)cc(Cl)c2O)c1 [Example 266, 3,5-Dichloro-N-(4-fluorobenzyl)-2-hydroxy-N-(3-methylbenzyl)benzenesulfonamide]
Bcl-b
  Ki: 300 nM
Mcl-1
  Ki: 1680 nM
Bcl-2
  Ki: 720 nM

## CC(C)N(Cc1ccccc1)C(=O)c1ccc(CN(Cc2ccc(F)cc2)S(=O)(=O)c2cc(Cl)cc(Cl)c2O)cc1 [Example 107, N-Benzyl-4-((3,5-dichloro-N-(4-fluorobenzyl)-2-hydroxyphenylsulfonamido)methyl)-N-isopropylbenzamide]
Bcl-b
  Ki: 210 nM
Mcl-1
  Ki: 520 nM
Bcl-2
  Ki: 480 nM

## O=C(NCc1cccc(CN(Cc2ccc(F)cc2)S(=O)(=O)c2cc(Cl)cc(Cl)c2O)c1)c1cc(O)nc(O)c1 [Example 2, N-(3-((3,5-Dichloro-N-(4-fluorobenzyl)-2-hydroxyphenylsulfonamido)methyl)benzyl)-2,6-dihydroxyisonicotinamide]
Bcl-b
  Ki: 50 nM
Mcl-1
  Ki: 20 nM
Bcl-2
  Ki: 20 nM

## CC(C)CN(Cc1cc(Cl)cc(CN(CC(C)C)S(=O)(=O)c2cc(Cl)cc(Cl)c2O)c1)C(=O)c1cccc(S(=O)(=O)C(F)(F)F)c1 [Example 73, N-(3-chloro-5-((3,5-dichloro-2-hydroxy-N-isobutylphenylsulfonamido)methyl)benzyl)-N-isobutyl-3-(trifluoromethylsulfonyl)benzamide]
Bcl-b
  Ki: 144 nM
Mcl-1
  Ki: 384 nM
Bcl-2
  Ki: 319 nM

## O=S(=O)(c1cc(Cl)cc(Cl)c1)N(Cc1ccc(F)cc1)Cc1cccc(CN(Cc2ccc(F)cc2)S(=O)(=O)c2cc(Cl)cc(Cl)c2O)[n+]1[O-] [Example 92, 2-((3,5-dichloro-N-(4-fluorobenzyl)-2-hydroxyphenylsulfonamido)methyl)-6-((3,5-dichloro-N-(4-fluorobenzyl)phenylsulfonamido)methyl)pyridine 1-oxide]
Bcl-b
  Ki: 12 nM
Mcl-1
  Ki: 60 nM
Bcl-2
  Ki: 46 nM

## O=S(=O)(c1cc(Cl)cc(Cl)c1O)N(Cc1ccc(F)cc1)Cc1cccc(-c2ccc(Cl)cc2)c1 [Example 232, 3,5-Dichloro-N-((4′-chlorobiphenyl-3-yl)methyl)-N-(4-fluorobenzyl)-2-hydroxybenzenesulfonamide]
Bcl-b
  Ki: 90 nM
Mcl-1
  Ki: 50 nM
Bcl-2
  Ki: 90 nM

## COC(=O)c1cc(Cl)cc(S(=O)(=O)N(Cc2ccc(F)cc2)Cc2cccc(-c3ccc(Cl)cc3)c2)c1O [Example 226, Methyl 5-chloro-3-(N-((4′-chloro-biphenyl-3-yl)methyl)-N-(4-fluorobenzyl)sulfamoyl)-2-hydroxybenzoate]
Bcl-b
  Ki: 500 nM
Mcl-1
  Ki: 2280 nM
Bcl-2
  Ki: 3730 nM

## O=C(N[C@H]1C[C@@H]1c1ccccc1)c1ccc(CN(Cc2ccc(F)cc2)S(=O)(=O)c2cc(Cl)cc(Cl)c2O)cc1 [Example 143, 4-((3,5-Dichloro-N-(4-fluorobenzyl)-2-hydroxyphenylsulfonamido)methyl)-N-((1S,2R)-2-phenylcyclopropyl)benzamide]
Bcl-b
  Ki: 170 nM
Mcl-1
  Ki: 450 nM
Bcl-2
  Ki: 370 nM

## O=S(=O)(c1cc(Cl)cc(Cl)c1O)N(Cc1ccc(Cl)cc1)Cc1cccc(-c2ccc(Cl)cc2)n1 [Example 274, 3,5-Dichloro-N-(4-chlorobenzyl)-N-((6-(4-chlorophenyl)pyridin-2-yl)methyl)-2-hydroxybenzenesulfonamide]
Bcl-b
  Ki: 450 nM
Mcl-1
  Ki: 1570 nM
Bcl-2
  Ki: 520 nM

## O=S(=O)(NCc1cccc(CN(Cc2ccccc2SC(F)(F)F)S(=O)(=O)c2cc(Cl)cc(Cl)c2O)c1)c1cc(Cl)cc(Cl)c1O [Example 64]
Bcl-b
  Ki: 74 nM
Mcl-1
  Ki: 169 nM
Bcl-2
  Ki: 96 nM

## CS(=O)(=O)c1cccc(CN(Cc2cc(CNC(=O)c3cccc(Oc4ccccc4)c3)cc(Oc3ccc(F)cc3)c2)S(=O)(=O)c2cc(Cl)cc(Cl)c2O)c1 [Example 77, N-(3-((3,5-dichloro-2-hydroxy-N-(3-(methylsulfonyl)benzyl)phenylsulfonamido)methyl)-5-(4-fluorophenoxy)benzyl)-3-phenoxybenzamide]
Bcl-b
  Ki: 77 nM
Mcl-1
  Ki: 194 nM
Bcl-2
  Ki: 133 nM

## CCN(CC)CCOc1ccc(CN(Cc2cccc(CNS(=O)(=O)c3cc(Cl)cc(Cl)c3O)c2)S(=O)(=O)c2cc(Cl)cc(Cl)c2O)cc1 [Example 61, 3,5-dichloro-N-(3-((3,5-dichloro-2-hydroxyphenylsulfonamido)methyl)benzyl)-N-(4-(2-(diethylamino)ethoxy)benzyl)-2-hydroxybenzenesulfonamide]
Bcl-b
  Ki: 133 nM
Mcl-1
  Ki: 1020 nM
Bcl-2
  Ki: 500 nM

## CC(C)NC(=O)c1cc(Cl)c(O)c(S(=O)(=O)N(Cc2ccc(F)cc2)Cc2cccc(-c3ccc(Cl)cc3)c2)c1 [Example 211, 3-Chloro-5-(N-((4′-chlorobiphenyl-3-yl)methyl)-N-(4-fluorobenzyl)-sulfamoyl)-4-hydroxy-N-isopropylbenzamide]
Bcl-b
  Ki: 160 nM
Mcl-1
  Ki: 530 nM
Bcl-2
  Ki: 480 nM

## CCCCCCCCc1ccc(CN(Cc2cccc(Oc3ccc(F)cc3)c2)S(=O)(=O)c2cc(Cl)cc(Cl)c2O)cc1 [Example 235, 3,5-Dichloro-N-(3-(4-fluorophenoxy)benzyl)-2-hydroxy-N-(4-octylbenzyl)benzenesulfonamide]
Bcl-b
  Ki: 60 nM
Mcl-1
  Ki: 40 nM
Bcl-2
  Ki: 80 nM

## CC(C)CN(Cc1cc(Cl)cc(CN(CC(C)C)S(=O)(=O)c2cc(Cl)cc(Cl)c2O)c1)C(=O)c1ccc(SC(F)(F)F)cc1 [Example 71, N-(3-chloro-5-((3,5-dichloro-2-hydroxy-N-isobutylphenylsulfonamido)methyl)benzyl)-N-isobutyl-4-(trifluoromethylthio)benzamide]
Bcl-b
  Ki: 247 nM
Mcl-1
  Ki: 970 nM
Bcl-2
  Ki: 469 nM

## O=C(NCc1ccccc1)c1cc(Cl)c(O)c(S(=O)(=O)N(Cc2ccc(F)cc2)Cc2ccc(Oc3ccc(C(F)(F)F)cc3)cc2)c1 [Example 219, N-Benzyl-3-chloro-5-(N-(4-fluoro-benzyl)-N-(4-(4-(trifluoromethyl)-phenoxy)benzyl)sulfamoyl)-4-hydroxybenzamide]
Bcl-b
  Ki: 120 nM
Mcl-1
  Ki: 40 nM
Bcl-2
  Ki: 170 nM
